Results: PubChem BioAssay (NCI)
Where “and” joins values, the source holds several entries; their conditions need not be identical. Equal entries are not always repeated.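 Tested at 5 concentrations; 48 h exposure; 96-well plates; endpoints linearly interpolated, else capped at highest concentration. GI50 = concentration required for 50% inhibition of growth. TGI is the concentration that stops growth completely.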

How the values were obtained:
Assay in all cases: DTP human tumour cell line panel, 48 h
IGROV1 ovarian = system: IGROV1 ovarian
SN12C renal = system: SN12C renal
SK-MEL-28 melanoma = system: SK-MEL-28 melanoma
UO-31 renal = system: UO-31 renal
MALME-3M melanoma = system: MALME-3M melanoma
SF-539 CNS = system: SF-539 CNS
PC-3 prostate = system: PC-3 prostate
OVCAR-4 ovarian = system: OVCAR-4 ovarian
HT29 colon = system: HT29 colon
SF-268 CNS = system: SF-268 CNS

| SMILES | GI50 (IGROV1 ovarian) | TGI (IGROV1 ovarian) | GI50 (SN12C renal) | TGI (SN12C renal) | GI50 (SK-MEL-28 melanoma) | TGI (SK-MEL-28 melanoma) | GI50 (UO-31 renal) | TGI (UO-31 renal) | GI50 (MALME-3M melanoma) | TGI (MALME-3M melanoma) | GI50 (SF-539 CNS) | TGI (SF-539 CNS) | GI50 (PC-3 prostate) | TGI (PC-3 prostate) | GI50 (OVCAR-4 ovarian) | TGI (OVCAR-4 ovarian) | GI50 (HT29 colon) | TGI (HT29 colon) | GI50 (SF-268 CNS) | TGI (SF-268 CNS) |
| --- | --- | --- | --- | --- | --- | --- | --- | --- | --- | --- | --- | --- | --- | --- | --- | --- | --- | --- | --- | --- |
| BrC(Br)(Br)c1cnc2ccccc2n1 | 2.2 µM | 6.8 µM | 3.71 µM | 14.1 µM | 1.85 µM | 4.24 µM | 0.793 µM | 2.39 µM | 1.55 µM | 5.28 µM | 2.21 µM | 4.86 µM | 2.44 µM | 9.89 µM | 1.46 µM | 3.98 µM | 1.06 µM | 2.67 µM | 4 µM | 17.5 µM |
| C=CC[Se]C(=O)Cc1c(C)n(C(=O)c2ccc(Cl)cc2)c2ccc(OC)cc12 | 1.88 µM | 3.75 µM | 1.68 µM | 3.05 µM | 1.69 µM | 3.12 µM | 1.54 µM | 2.88 µM | 1.71 µM | 3.45 µM | 1.66 µM | 3.02 µM | 1.26 µM | 2.8 µM | 1.69 µM | 3.07 µM | 3.39 µM | > 100 µM | 2.23 µM | 5.7 µM |
| O=C(O)c1ccc(S(=O)(=O)N=Nc2c(O)[nH]c3ccccc23)cc1 | – | > 100 µM | – | > 100 µM | – | > 100 µM | – | > 100 µM | – | > 100 µM | – | > 100 µM | – | > 100 µM | – | > 100 µM | – | > 100 µM | – | > 100 µM |
| CC12CCc3ccccc3C1=Nc1ccccc12 (stereo not given) | – | > 100 µM | – | 43.7 µM | – | > 100 µM | – | > 100 µM | – | > 100 µM | – | 78.5 µM | – | > 100 µM | – | > 100 µM | – | > 100 µM | – | > 100 µM |
| COc1cccc2c1cc([N+](=O)[O-])c1c(C(=O)O)cc3c(c12)OCO3 | 34.3 µM | > 100 µM | 48.7 µM | > 100 µM | 46.7 µM | > 100 µM | 26.2 µM | > 100 µM | 31.1 µM | > 100 µM | – | > 75.8 µM | 27.8 µM | > 100 µM | 83.4 µM | > 100 µM | 0.352 µM | 2.42 µM and 10.4 µM | 29 µM | > 95.2 µM |
| Cc1ccc(C2SCc3nc4ccc(C(=O)c5ccccc5)cc4n32)cc1 (stereo not given) | 13.6 µM | > 69 µM | 11.4 µM | 38.3 µM | 17.7 µM | > 100 µM | 17 µM | 54.9 µM | 6.27 µM | 26.8 µM | 13.4 µM | 32.5 µM | 10.5 µM | > 67.5 µM | 34 µM | > 100 µM | 5.73 µM | > 100 µM | 22.4 µM | 77.7 µM |
| O=C1NC(=O)C2(CCC(O)C2)c2cc[n+]([O-])cc21 (stereo not given) | – | > 100 µM | – | > 100 µM | – | > 100 µM | – | > 100 µM | – | > 100 µM | – | > 100 µM | – | > 100 µM | – | > 100 µM | – | > 100 µM | – | > 100 µM |
| CCCC(=O)NC(c1ccc2c(c1)OCO2)c1ccc2cccnc2c1O (stereo not given) | 0.888 µM | > 100 µM | 2.28 µM | > 100 µM | 3.03 µM | > 100 µM | 0.557 µM | 18.4 µM | 2.17 µM | > 100 µM | 1.41 µM | > 100 µM | 0.729 µM | > 100 µM | 0.375 µM | 6.02 µM | 3.92 µM | > 100 µM | 1.46 µM | > 100 µM |
| C=C1CC2(OC1=O)c1ccccc1C=Cc1ccccc12 | – | 15.9 µM | – | 7.14 µM | – | 9.32 µM | – | 15.7 µM | – | 9.71 µM | – | 6.72 µM | – | 16.3 µM | – | 11.7 µM | – | 6.8 µM | – | 17.4 µM |
| O=C1C(Cl)=C(Nc2cccc(C(F)(F)F)c2)C(=O)N1Cc1ccccc1Cl | 0.186 µM | 11.2 µM | 3.96 µM | 16.8 µM | 8.21 µM | 26.9 µM | 5.01 µM | > 43.6 µM | 1.54 µM | 23.3 µM | 1.91 µM | 10.7 µM | 4.72 µM | 18.2 µM | 6.58 µM | 26.5 µM | 4.9 µM | 32.9 µM | 7.7 µM | 26.1 µM |
| COC(=O)[C@@H](Cc1c[nH]c2ccccc12)NC(=O)/C=C/c1ccccc1 | 7.07 µM | > 100 µM | 4.49 µM | > 100 µM | 4.43 µM | > 100 µM | 3.68 µM | > 100 µM | > 100 µM | > 100 µM | 1.95 µM | 5.29 µM | 3.22 µM | 68.2 µM | 5.71 µM | > 100 µM | 3.9 µM | 14.1 µM | 4.52 µM | > 100 µM |
| COc1ccc2[nH]c(-c3cccc(N(C)C)c3)cc(=O)c2c1 | – | > 100 µM | 0.654 µM | > 100 µM | 0.795 µM | > 100 µM | 0.633 µM | > 100 µM | – | > 100 µM | 0.391 µM | – | 0.435 µM | > 100 µM | – | > 100 µM | 0.345 µM | 1.46 µM and 3.21 µM | 0.657 µM | 33.7 µM |
| O=C(O)c1ccc(-c2ccc(C(=O)O)cc2I)c(I)c1 | > 100 µM | > 100 µM | > 100 µM | > 100 µM | > 100 µM | > 100 µM | > 100 µM | > 100 µM | > 100 µM | > 100 µM | > 100 µM | > 100 µM | > 100 µM | > 100 µM | > 100 µM | > 100 µM | > 100 µM | > 100 µM | > 100 µM | > 100 µM |
| COc1cc2nc(-c3ccc(-n4cncc4-c4ccc(N)cc4)cc3)sc2c(OC)c1OC | 2.63 µM | 20.2 µM | 8.95 µM | > 100 µM | > 100 µM | > 100 µM | 1.55 µM | 6.87 µM | 0.71 µM | 6.44 µM | 7.14 µM | > 100 µM | 3.02 µM | 49.2 µM | 3.6 µM | 32.1 µM | 2.79 µM | > 100 µM | 12.3 µM | 62.1 µM |
| CCCCCC(=O)OCC(=O)O[C@@H]1C[C@]2(C(C)C)O[C@@]1(C)[C@@H]1CC[C@@H](C)[C@H]1[C@@H]2OC(=O)/C=C/c1ccccc1 | > 33.4 µM | > 55.8 µM | 2.9 µM | > 78.7 µM | > 56.6 µM | > 83 µM | 0.0408 µM | 0.254 µM | > 35.4 µM | > 57 µM | > 51.3 µM | > 76.2 µM | 8.58 µM | > 100 µM | 26.5 µM | > 71.5 µM | > 37.4 µM | > 79.1 µM | 4.08 µM | > 84.7 µM |
